Results on four molecules are retold here after article PMC6269819, “Evaluation of the Biological Activity of Naturally Occurring 5,8-Dihydroxycoumarin” (Molecules, 2013).

Marks after values point to notes of the source that are not given here.

Series [1] has as its system Chinese hamster ovary (CHO) cells. To be noted: doses up to 333 μM; cited from earlier work.
For series [2], the system named is Wistar rat bone marrow cells. The conditions noted are these: rats, single 30–40 mg/kg dose of CP; cited from earlier work.
Series [3] deals with Wistar rat bone marrow cells. Nature of the series: Micronucleus in vivo assay in rat bone marrow. The conditions noted are these: single i.p. 30 mg/kg b.w., sacrifice 24 h. An excerpt: Male albino Wistar rats aged 8–10 weeks and having body weight of 200–220 g, were used in the present study. The animals were supplied by the Animal Facility of the Department of Immunology, State Research Institute Center for Innovative Medicine. Ethical approval was given by the Committee of the Lithuanian Animal Care and Use. Prior to the start of the study, the animals were acclimatized for 7 days. They were housed under conditions of constant temperature, humidity and a light/dark cycle of 12 h/12 h with free access to standard commercial pellet diet and drinking water. The animals were randomly distributed into 11 experimental groups of six rats each.
We used a mixture of dimethylsulfoxide (DMSO) and sunflower oil (1:2) as the vehicle for 5,8-DHC (5,8-DHC was dissolved in DMSO and adjusted to the desired dose with sunflower oil immediately before administration). For the acute treatment, the animals received single intraperitoneal (i.p.) injections of 10 or 20 mg/kg of 5,8-DHC in 1 mL volume per 100 g body weight (b.w.). The negative control group comprised animals, given a single i.p. injection of vehicle (1 mL/100 g b.w.) and the positive control group, given cyclophosphamide (CP, 30 mg/kg adjusted in 0.5 mL/100 g b.w. in sterile physiological saline). A commercial form of cyclophosphamide was used (‘Endoxan’, ASTA Medica AG, Frankfurt, Germany). Blank controls comprised untreated animals. For the repeated treatment, 5,8-DHC (10 or 20 mg/kg) or vehicle was administered via gavage (1 mL/100 g b.w.) once a day for 3 consecutive days. Animals were sacrificed 24 h or 48 h after the last dose administration. Colchicine was applied i.p. at a dose of 2 mg/kg b.w. in 1 mL volume 90 min before sacrifice. Both femurs were dissected from each animal and used to obtain bone marrow preparations for the analysis of chromosome aberrations and micronucleus.
The bone marrow MN assay was conducted according to the standard procedure. Ends of the femura were cut off and the bone marrow was washed out with 2 mL of heat-inactivated foetal calf serum (Biochrom AG, Berlin, Germany), mixed thoroughly to obtain a fine suspension and centrifuged for 5 min at 150 × g. The supernatant was discarded and the cell pellet was carefully re-suspended. At least two smears per animal were prepared and allowed to air dry prior to fixation with methanol. The slides were stained in May-Grünwald solution followed by Giemsa (both Merck), coded and scored blind by the same scorer under magnification of 1000× (Jenaval, Zeiss, Jena, Germany). Micronucleated polychromatic erythrocyte (MNPCE) frequencies were based on the observation of 2,000 immature polychromatic erythrocytes (PCEs). Bone marrow toxicity was monitored by a decrease of PCE to total erythrocytes (e.g., PCEs+NCEs, normochromatic erythrocytes). At least 1,000 bone marrow erythrocytes per animal were analysed.

For series [4], the system named is Drosophila melanogaster wing cells. Nature of the series: Somatic mutation and recombination test (SMART), wing spot test. It is filed as in vivo. To be noted: positive control, 50 μM MMS. The method, then: The basic procedures for the D. melanogaster somatic mutation and recombination test (SMART) were performed according to Graf and co-workers. Two D. melanogaster strains (kindly provided by Dr. H. Frei, Zurich, Switzerland) were used in the present study: virgin females from the strain ORR/ORR; flr^3/ In (3LR) TM3, ri p^p sep l(3)89Aa bx^34e e Bd^S were mated with mwh/mwh males. The ORR strain has chromosomes 1 and 2 from a DDT-resistant Oregon line, which are characterized by constitutively over-expressed CYP450 genes. The CYP 450 enzymes play the main role in the bioactivation of xenobiotics, as well as natural products including phytochemicals. Thus, the use of this high-bioactivation strain of D. melanogaster facilitates the detection of promutagens of numerous classes of compounds. The markers mwh (multiple wing hairs) and flr^3 (misshapen, flare-like hairs) are recessive wing-hair mutations located on the third chromosome at 0.3 and 38.8 respectively.
Eggs from the crosses were collected over 10 h periods. Progeny were raised on the Instant Drosophila Medium (Sigma Chemical Co., St. Louis, MO, USA) at 25 °C. Two schedules of the larvae treatment were applied. Firstly, the crossed flies were permitted to lay eggs for 10 h in vials containing medium prepared with 5,8-DHC solution. Thus, the exposure duration was about 120 h (i.e., evolutionary period from fly egg till case-worm). According to the second schedule, the 72 ± 5 h-old larvae were exposed to 5,8-DHC by adding test solution to the surface of the medium and were fed on this medium for the rest of their development, during approximately 48 h. 5,8-DHC was dissolved in ethanol and then diluted with distilled water to the desired concentration, with the final ethanol concentration 5% v/v. The solutions were always prepared immediately before use. Solvent controls were included in all treatments. Methyl methanesulfonate was included in the assay as a positive control. Trans-heterozygous (mwh flr^+ / mwh^+ flr^3) flies were collected and stored in a 70% ethanol. The wings of adult flies were mounted on glass slides in Faure’s solution, coded and scored at 400× magnification (Nikon E200) for the presence of single (mwh or flr^3 phenotype) or twin (adjacent mwh and flr^3 clones) spots. The spots were recorded according to standard procedures. No less than 40 wings were analysed per each experimental point. Two repeated experiments were carried out.

For a further series, the system named is human lymphocytes. Nature of the series: Chromosome aberrations in human lymphocyte cultures in vitro. It is filed as cell-based. To be noted: female, human, 24 h, 0.02 µL/mL. The method, then:
Blood samples were taken from two healthy female volunteers (donor A) and (donor B). Whole peripheral blood was grown in HEPES-buffered RPMI 1640 medium supplemented with 12% heat-inactivated newborn calf serum, 7.8 μg/mL phytohemagglutinin P, 50 μg/mL gentamycin, 10 μg/mL 5-bromo-2'-deoxyuridine. All reagents used for the cell culture were purchased from Sigma-Aldrich Chemical Co. (St. Louis, MO, USA). Cell cultures were incubated at 37 °C for 72 h. Treatment with test compounds was carried out 48 h after culture initiation and lasted for the period of 24 h. Dose range of 5,8-DHC (10 to 40 µg/mL) was based on pilot experiments (data not shown). As whole blood cultures display many properties common with the liver microsomal cytochrome P450 system, no external metabolising enzymes were added. 5,8-DHC was dissolved in ethanol and then diluted with RPMI 1640 medium to the desired concentration. Ethanol in a final concentration of 7.5µL/mL was used as a solvent control. […] Working solutions were made just before treatment. Two parallel cultures were used for each concentration of the compound tested. Two cultures were left untreated and served as a blank control. Methyl methanesulfonate (MMS) in a final concentration of 0.02 μL/mL was used as a positive control. The cultures were exposed to colchicine at a final concentration of 0.6 μg/mL for the last 3 h of incubation. The cells were harvested, hypotonically swollen in 0.075 M KCl and fixed in methanol: acetic acid (3:1). Air-dried slides were differentially stained by fluorescence plus Giemsa technique as has been described previously. Briefly, the slides were stained for 10 min. with 10 μg/mL of Hoechst 33258 dye (dissolved in 0.07 M Soerensen’s buffer, pH 6.8). Then the slides were rinsed, mounted with citrate buffer (pH 8.5), covered with cover slips and exposed to UV light (400 W mercury lamp at a distance of 15 cm) for 6–7 min. Slides were then rinsed and stained for 3–4 min. with 5% Giemsa. Cytogenetic analysis was performed on coded slides. No less than 100 first-mitotic division metaphases per culture were analysed for CAs, and no less than 50 second-division metaphases for SCEs.

A further series concerns male rat hepatocytes. The conditions noted are these: cited from earlier work.

On to `O=c1ccc2ccc(O)cc2o1` [umbelliferone, 7-hydroxycoumarin], for which, in series [1], the “increase in SCE or chromosome aberration” value is reported as “no evidence of increase”.
Take `O=P1(N(CCCl)CCCl)NCCCO1` (stereo not drawn) [CP, cyclophosphamide, reference compound]: in series [2], the “frequency of abnormal metaphases” value was 16–21%. For the same molecule, in series [3], the “MNPCE (%± S.E.M.)” value is recorded as 1.67 ± 0.22 ^a % and the “PCE (%± S.E.M.)” value came to 34.8 ± 6.4%.
With `COS(C)(=O)=O` [MMS, Methyl methanesulfonate, reference compound], in series [4], the large single spots is 4.63, the small single spots turned out to be 1.65, the “total spots per wing” value stood at 7.15 spots per wing and the twin spots came to 0.88. The wings with spots in series [4] stood at 100%. For the same molecule, the “CA per 100 cells (±S.E.M.)” value in the series with human lymphocytes was 12.0 ± 3.2 ^b per 100 cells.
Take `O=c1ccc2ccccc2o1` [coumarin, 1,2-benzopyrone]: the “induction of UDS” value in the series with male rat hepatocytes (oral administration, doses up to 320 mg/kg bw) was “does not induce UDS”. In the series with male rat hepatocytes (rat, in vivo, po), the maximum tolerated dose is listed as 320 mg/kg bw.
